Species: Rattus norvegicus
Test: DrugMatrix - Regimen: Daily Repeat
Type: toxicity, organism-based, Sprague-Dawley
Set-up: regimen Daily Repeat, gender Male, age 6-8 weeks
Conditions: in vivo, ip, 0.5 mg/kg, route intraperitoneal, dose level High, vehicle 100 % SALINE; for ALANINE AMINOTRANSFERASE / ALBUMIN / ALKALINE PHOSPHATASE / ASPARTATE AMINOTRANSFERASE / BLOOD UREA NITROGEN / CHLORIDE / CHOLESTEROL / CREATINE PHOSPHOKINASE / CREATININE / GLUCOSE / LACTATE DEHYDROGENASE / LIPASE / PHOSPHORUS / POTASSIUM / SODIUM / TOTAL BILIRUBIN / TOTAL PROTEIN / URIC ACID: tissue Plasma
[1] = 120 h, tissue Blood, time 5 day

For TRANSPLATIN, the ABSOLUTE BASOPHIL [1] was 86 cells/µL, the ABSOLUTE EOSINOPHIL [1] was 98 cells/µL and the ABSOLUTE LYMPHOCYTE [1] was 10800 cells/µL. For the same sequence, the ABSOLUTE MONOCYTE [1] was 340 cells/µL, the ABSOLUTE SEGMENTED NEUTROPHIL [1] was 1910 cells/µL and the BASOPHIL [1] was 0.64%. For the same sequence, the EOSINOPHIL [1] was 0.74%, the “ERYTHROCYTE COUNT” value [1] was 7.41 x10E6/uL and the HEMATOCRIT [1] was 45.48%. For the same sequence, the HEMOGLOBIN [1] was 14.92 G/DL, the “LEUKOCYTE COUNT” value [1] was 13.36 x10E3/uL and the LYMPHOCYTE [1] was 80.42%. For the same sequence, the “MEAN CORPUSCULAR HEMOGLOBIN” value [1] was 20.12 pg, the “MEAN CORPUSCULAR HEMOGLOBIN CONCENTRATION” value [1] was 32.8 G/DL and the MONOCYTE [1] was 2.5%. The NEUTROPHIL [1] was 14.94%, the “PLATELET COUNT” value [1] was 1349 x10E3/uL and the “ALANINE AMINOTRANSFERASE” value (120 h, time 5 day) was 30.2 u/L. The ALBUMIN (120 h, time 5 day) was 3.6 G/DL, the “ALKALINE PHOSPHATASE” value (120 h, time 5 day) was 229 u/L and the “ASPARTATE AMINOTRANSFERASE” value (120 h, time 5 day) was 82.8 u/L. The “BLOOD UREA NITROGEN” value (120 h, time 5 day) was 15 mg/dL, the CHLORIDE (120 h, time 5 day) was 110 MEQ/L and the CHOLESTEROL (120 h, time 5 day) was 67.2 mg/dL. For the same sequence, the “CREATINE PHOSPHOKINASE” value (120 h, time 5 day) was 368.2 u/L, the CREATININE (120 h, time 5 day) was 0.52 mg/dL and the GLUCOSE (120 h, time 5 day) was 119 mg/dL. The “LACTATE DEHYDROGENASE” value (120 h, time 5 day) was 67.6 u/L, the LIPASE (120 h, time 5 day) was 22.4 u/L and the PHOSPHORUS (120 h, time 5 day) was 9.94 mg/dL. The POTASSIUM (120 h, time 5 day) was 6.16 MEQ/L, the SODIUM (120 h, time 5 day) was 151.8 MEQ/L and the “TOTAL BILIRUBIN” value (120 h, time 5 day) was 0.2 mg/dL. For the same sequence, the “TOTAL PROTEIN” value (120 h, time 5 day) was 6.2 G/DL, the “URIC ACID” value (120 h, time 5 day) was 0.98 mg/dL and the ABSOLUTE BASOPHIL ([…], tissue Blood, time 14 day) was 68 cells/µL. For the same sequence, the ABSOLUTE EOSINOPHIL ([…], tissue Blood, time 14 day) was 76 cells/µL, the ABSOLUTE LYMPHOCYTE ([…], tissue Blood, time 14 day) was 6430 cells/µL and the ABSOLUTE MONOCYTE ([…], tissue Blood, time 14 day) was 260 cells/µL. The ABSOLUTE SEGMENTED NEUTROPHIL ([…], tissue Blood, time 14 day) was 2460 cells/µL, the BASOPHIL ([…], tissue Blood, time 14 day) was 0.74% and the EOSINOPHIL ([…], tissue Blood, time 14 day) was 0.84%. For the same sequence, the “ERYTHROCYTE COUNT” value ([…], tissue Blood, time 14 day) was 7.71 x10E6/uL, the HEMATOCRIT ([…], tissue Blood, time 14 day) was 46.84% and the HEMOGLOBIN ([…], tissue Blood, time 14 day) was 15.04 G/DL. The “LEUKOCYTE COUNT” value ([…], tissue Blood, time 14 day) was 9.33 x10E3/uL, the LYMPHOCYTE ([…], tissue Blood, time 14 day) was 69.2% and the “MEAN CORPUSCULAR HEMOGLOBIN” value ([…], tissue Blood, time 14 day) was 19.52 pg. The “MEAN CORPUSCULAR HEMOGLOBIN CONCENTRATION” value ([…], tissue Blood, time 14 day) was 32.1 G/DL, the MONOCYTE ([…], tissue Blood, time 14 day) was 2.7% and the NEUTROPHIL ([…], tissue Blood, time 14 day) was 26.14%. The “PLATELET COUNT” value ([…], tissue Blood, time 14 day) was 1318.6 x10E3/uL, the ABSOLUTE BASOPHIL ([…], tissue Blood, time 28 day) was 120 cells/µL and the ABSOLUTE EOSINOPHIL ([…], tissue Blood, time 28 day) was 130 cells/µL. For the same sequence, the ABSOLUTE LYMPHOCYTE ([…], tissue Blood, time 28 day) was 9640 cells/µL, the ABSOLUTE MONOCYTE ([…], tissue Blood, time 28 day) was 190 cells/µL and the ABSOLUTE SEGMENTED NEUTROPHIL ([…], tissue Blood, time 28 day) was 1790 cells/µL. For the same sequence, the BASOPHIL ([…], tissue Blood, time 28 day) was 1.07%, the EOSINOPHIL ([…], tissue Blood, time 28 day) was 1.08% and the “ERYTHROCYTE COUNT” value ([…], tissue Blood, time 28 day) was 8.68 x10E6/uL. The HEMATOCRIT ([…], tissue Blood, time 28 day) was 49.56%, the “LEUKOCYTE COUNT” value ([…], tissue Blood, time 28 day) was 11.93 x10E3/uL and the LYMPHOCYTE ([…], tissue Blood, time 28 day) was 80.6%. The “MEAN CORPUSCULAR HEMOGLOBIN” value ([…], tissue Blood, time 28 day) was 18.81 pg, the “MEAN CORPUSCULAR HEMOGLOBIN CONCENTRATION” value ([…], tissue Blood, time 28 day) was 32.89 G/DL and the “MEAN CORPUSCULAR VOLUME” value ([…], tissue Blood, time 28 day) was 57.13 fL. The MONOCYTE ([…], tissue Blood, time 28 day) was 1.64%, the NEUTROPHIL ([…], tissue Blood, time 28 day) was 15.11% and the “PLATELET COUNT” value ([…], tissue Blood, time 28 day) was 1319.89 x10E3/uL. The “ALANINE AMINOTRANSFERASE” value ([…], time 14 day) was 24.6 u/L, the ALBUMIN ([…], time 14 day) was 3.5 G/DL and the “ALKALINE PHOSPHATASE” value ([…], time 14 day) was 202 u/L. The “ASPARTATE AMINOTRANSFERASE” value ([…], time 14 day) was 78.6 u/L, the “BLOOD UREA NITROGEN” value ([…], time 14 day) was 12.6 mg/dL and the CHOLESTEROL ([…], time 14 day) was 52.8 mg/dL. For the same sequence, the “CREATINE PHOSPHOKINASE” value ([…], time 14 day) was 180.2 u/L, the CREATININE ([…], time 14 day) was 0.58 mg/dL and the GLUCOSE ([…], time 14 day) was 120.4 mg/dL. For the same sequence, the “LACTATE DEHYDROGENASE” value ([…], time 14 day) was 80.8 u/L, the LIPASE ([…], time 14 day) was 54.4 u/L and the POTASSIUM ([…], time 14 day) was 5.82 MEQ/L. For the same sequence, the SODIUM ([…], time 14 day) was 150.8 MEQ/L, the “TOTAL BILIRUBIN” value ([…], time 14 day) was 0.3 mg/dL and the “TOTAL PROTEIN” value ([…], time 14 day) was 6.48 G/DL. The “URIC ACID” value ([…], time 14 day) was 0.98 mg/dL, the “ALANINE AMINOTRANSFERASE” value ([…], time 28 day) was 35.44 u/L and the ALBUMIN ([…], time 28 day) was 3.69 G/DL. For the same sequence, the “ALKALINE PHOSPHATASE” value ([…], time 28 day) was 151 u/L, the “ASPARTATE AMINOTRANSFERASE” value ([…], time 28 day) was 83 u/L and the “BLOOD UREA NITROGEN” value ([…], time 28 day) was 14 mg/dL. For the same sequence, the CHLORIDE ([…], time 28 day) was 108.89 MEQ/L, the CHOLESTEROL ([…], time 28 day) was 61.44 mg/dL and the “CREATINE PHOSPHOKINASE” value ([…], time 28 day) was 144.22 u/L. The CREATININE ([…], time 28 day) was 0.58 mg/dL, the GLUCOSE ([…], time 28 day) was 132.22 mg/dL and the “LACTATE DEHYDROGENASE” value ([…], time 28 day) was 67.22 u/L. The LIPASE ([…], time 28 day) was 45.22 u/L, the PHOSPHORUS ([…], time 28 day) was 9.38 mg/dL and the SODIUM ([…], time 28 day) was 151.78 MEQ/L. For the same sequence, the “TOTAL BILIRUBIN” value ([…], time 28 day) was 0.2 mg/dL, the “TOTAL PROTEIN” value ([…], time 28 day) was 6.82 G/DL and the “URIC ACID” value ([…], time 28 day) was 1.21 mg/dL.

Source: ChEMBL document CHEMBL3885881, “DrugMatrix”
